From US20220160712A1, “METHODS OF TREATING RHEUMATOID ARTHRITIS AND FOR PREDICTING THE RESPONSE TO METHOTREXATE” (CHAN ZUCKERBERG BIOHUB, INC., priority 2020, published 2022)
Values joined by “and” are separate entries in the source; they are usually repeats but may differ in a detail not shown here. Equal values may be shown once.

Key:
Clostridium sporogenes = assay: RNA-seq after MTX treatment; assay type: cell-based; details: MTX 100 μg/ml, 30 minutes; padj<0.2, DESeq
Method: Genomes were obtained from NCBI's GenBank Assembly database. Culture media was composed of BHI+and allowed to equilibrate in an anaerobic environment prior to use. Briefly, bacteria were cultured in BHI+at 37° C. in an anaerobic chamber. Cultures for each isolate were grown to mid-exponential (achieving an OD600˜0.5), aliquoted into triplicates, treated for 30 minutes with either DMSO or MTX 100 μg/ml, and then removed from the anaerobic chamber. […]
Total RNA was subjected to rRNA depletion using Ribo-Zero Bacterial rRNA Depletion (Illumina, catalog #: MRZB12424), following the manufacturer's protocol. […] For each sample, fastq files are available in NCBI's Sequence Read Archive (SRA), accession number PRJNA656577.
Reads were trimmed using Trimmomatic (v0.32) (Bolger, A. M., et al., (2014), Bioinformatics 30, 2114-2120), and ribosomal reads were removed using SortMeRNA (v2.1) (Kopylova, E., et al., (2012), Bioinformatics 28, 3211-3217). Reads were mapped to reference genomes using Bowtie2 (Langmead, B., and Salzberg, S. L. (2012), Nat Methods 9, 357-359) using the following options: -q, —met file, —end-to-end, —sensitive. […]

[1] = Predicted concentration of MTX in the gastrointestinal (GI) tract; design: species or system human; details: for predicted concentration of MTX in the proximal GI tract: RA oral dose 25 mg divided by 250 ml
Method: The predicted concentration of MTX in the proximal GI tract was estimated by taking the oral dose used for rheumatoid arthritis (25 mg) and dividing it by 250 ml Dahlgren, D., and Lennernas, H. (2019), Pharmaceutics 11, 411; Dressman, J. B., et al., (1985), J Pharm Sci 74, 588-589; Shekhawat, P.B., and Pokharkar, V. B. (2017), Acta Pharm Sin B 7, 260-280), giving a concentration of 100 μg/ml or 220 μM. Further refinement of this estimate was done based on variations in the absorption of oral MTX in the proximal intestine (Grim, J., et al., (2003), Clin Pharmacokinet 42, 139-151), where it is estimated that 10-70% of the dose is not absorbed and instead delivered to the distal GI tract in RA patients. Thus, the estimated range of MTX in the GI tract was calculated to be 10-70 μg/ml with 100 μg/ml being the highest predicted concentration (prior to absorption by the host). When considering the doses used for cancer therapy (50 mg/day of oral MTX), the predicted range is 20-140 μg/ml with 200 μg/ml being the highest dose. MTX can also be given intravenously (IV) or intrathecally for the treatment of cancer (Treon, S. P., and Chabner, B. A. (1996), Clin Chem 42, 1322-1329), and is typically given at much higher doses, including as high as 800-1000 mg IV over 24 hours for the treatment of cancers such as lymphoma or acute lymphoblastic leukemia. Assuming that 30% of this is enterohepatically circulated et al., (1982), Cancer Res 42, 1279-1282), then between 240 and 300 mg would enter the GI tract, and the predicted concentration in the GI tract would be between 960-1200 μg/ml.

[2] = newly diagnosed RA patients; cited from earlier work
[3] = cancer therapy, 50 mg/day oral MTX

## CN(Cc1cnc2nc(N)nc(N)c2n1)c1ccc(C(=O)N[C@@H](CCC(=O)O)C(=O)O)cc1 [MTX, methotrexate]
Clostridium sporogenes
  number of differentially expressed genes: 21 genes
[1]; 800-1000 mg IV over 24 hours, assuming 30% enterohepatically circulated
  predicted concentration in the GI tract: 960 to 1200 µg/mL
[1]; Example 2
  estimated concentration of MTX in the proximal gastrointestinal (GI) tract: 22-220 μM and 10-100 μg/ml
[1]; RA dose, 10-70% of the dose not absorbed
  estimated range of MTX in the GI tract: 10 to 70 µg/mL
[1]
  predicted concentration of MTX in the proximal GI tract: 220 µM
[1]; highest, prior to absorption
  predicted concentration of MTX in the proximal GI tract: 100 µg/mL
[1]; [3]
  highest predicted concentration of MTX in the GI tract: 200 µg/mL
  predicted range of MTX in the GI tract: 20 to 140 µg/mL
[2]
  patients with a robust response without escalation of therapy: ~33%
